Test results from patent US20170356048A1, “METHOD FOR PREDICTING RECEPTIVITY TO TARGETED ANTICANCER DRUG” (CBSBIOSCIENCE INC., priority 2014, published 2017).

Key:
liver cancer = test: Rate of response to sorafenib treatment (reduction in tumor size by CT and MRI, mRECIST) in liver cancer patients stratified by risk score or marker gene expression; type: in vivo, human
Protocol: In the following manner, RNA was extracted from each of the tissues and synthesized into cDNA.
The risk scores of a total of 29 liver cancer patients were calculated, and the risk score distribution of responders to sorafenib and the risk score distribution of non-responders to sorafenib were examined. Herein, whether or not sorafenib would have a therapeutic effect was determined based on the degree of reduction in tumor size by CT and MRI imagings, and criteria for the determination followed mRECIST (modified Response Evaluation Criteria in Solid tumors) criteria version 1.1.
In addition, after stratification of the liver cancer patients by classification, the rate of response to sorafenib treatment was examined in order to confirm improvement in clinical responses, and the results of the examination are shown in Table 5 below.

hepatocellular carcinoma = conditions: cited from earlier work

SMILES: CNC(=O)c1cc(Oc2ccc(NC(=O)Nc3ccc(Cl)c(C(F)(F)F)c3)cc2)ccn1 [sorafenib]
- Response rate (%) (liver cancer; liver cancer patients with CDH1 expression ≦0.0067, 3 responders, 13 non-responders): 18.75%
- Response rate (%) (liver cancer; liver cancer patients with ID2 expression ≦0.4965, 3 responders, 12 non-responders): 20.0%
- Response rate (%) (liver cancer; liver cancer patients with MMP9 expression >0.0433, 3 responders, 15 non-responders): 16.67%
- Response rate (%) (liver cancer; liver cancer patients with TCF3 expression >0.3711, 2 responders, 1 non-responder): 66.67%
- Response rate (%) (liver cancer; liver cancer patients with risk score (CDH1, ID2, MMP9, TCF3) >87.59, 3 responders, 8 non-responders): 27.27%
- treatment rate (hepatocellular carcinoma; hepatocellular carcinoma, unselected patients): 2-3%
- therapeutic effect (hepatocellular carcinoma; known value, NEJM2008 359(4):378-390): about 2.3%
